Test results taken from US12084436B2, “Heterocyclic compound” (Takeda Pharmaceutical Company Limited, priority 2019, dated 2024).

Biological target: T1, HDAC6 enzyme (Homo sapiens, UniProt Q9UBN7)
T1 construct: prepared by transducing full length HDAC6 gene into Sf-9 insect cells; GST; purchased SignalChem; host or cells: Sf-9 insect cells
T1 sequence (Q9UBN7 1-1215): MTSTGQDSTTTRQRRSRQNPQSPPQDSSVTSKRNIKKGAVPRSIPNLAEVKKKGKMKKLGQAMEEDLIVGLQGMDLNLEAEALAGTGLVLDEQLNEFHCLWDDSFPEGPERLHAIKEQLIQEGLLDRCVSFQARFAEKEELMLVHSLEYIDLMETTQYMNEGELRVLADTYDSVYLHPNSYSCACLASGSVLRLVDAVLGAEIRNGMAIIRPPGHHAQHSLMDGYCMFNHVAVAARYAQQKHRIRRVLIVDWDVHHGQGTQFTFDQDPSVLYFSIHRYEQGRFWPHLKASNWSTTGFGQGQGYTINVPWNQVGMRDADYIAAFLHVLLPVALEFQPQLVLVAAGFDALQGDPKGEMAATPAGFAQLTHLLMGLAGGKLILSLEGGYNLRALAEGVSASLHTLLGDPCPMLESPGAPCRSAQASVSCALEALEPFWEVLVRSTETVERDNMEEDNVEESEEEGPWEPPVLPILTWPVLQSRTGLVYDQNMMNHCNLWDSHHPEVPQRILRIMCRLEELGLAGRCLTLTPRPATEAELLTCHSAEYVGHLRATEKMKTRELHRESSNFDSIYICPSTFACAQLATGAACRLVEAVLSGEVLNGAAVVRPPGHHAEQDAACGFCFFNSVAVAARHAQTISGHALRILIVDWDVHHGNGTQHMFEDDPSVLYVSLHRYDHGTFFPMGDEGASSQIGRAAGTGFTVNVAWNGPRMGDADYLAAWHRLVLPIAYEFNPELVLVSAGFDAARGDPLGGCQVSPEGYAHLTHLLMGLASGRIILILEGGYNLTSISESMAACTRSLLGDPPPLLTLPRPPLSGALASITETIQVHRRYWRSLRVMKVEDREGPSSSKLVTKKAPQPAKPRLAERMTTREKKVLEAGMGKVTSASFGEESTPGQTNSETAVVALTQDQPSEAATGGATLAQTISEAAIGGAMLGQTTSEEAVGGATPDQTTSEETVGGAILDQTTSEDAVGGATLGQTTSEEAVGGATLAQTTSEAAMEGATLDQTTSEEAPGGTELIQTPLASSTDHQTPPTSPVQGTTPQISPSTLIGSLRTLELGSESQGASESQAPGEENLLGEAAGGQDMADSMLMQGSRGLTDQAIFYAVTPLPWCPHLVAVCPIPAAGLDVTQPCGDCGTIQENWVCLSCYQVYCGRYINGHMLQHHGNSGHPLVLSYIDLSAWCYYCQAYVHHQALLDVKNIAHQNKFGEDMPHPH
Assay: HDAC6 enzyme inhibitory assay (HDAC-Glo I/II Assay kit, luminescence)
Type: biochemical
Conditions: 10 μM test compound; wells without enzyme = 100% inhibition; read-out: HDAC6 inhibitory rate (%) (10 μM)
Method in brief: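 Full-length human HDAC6, GST-purified from Sf-9 cells, was preincubated with compound for 60 min at room temperature in Tris-HCl pH 7.5 buffer with glutathione and Tween-20. Substrate-developer was then added, and luminescence was read after 20 min at room temperature. Inhibition was expressed relative to no-enzyme wells, taken as 100% inhibition.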

Structure (SMILES) | inhibition at 10 µM [%]
FC(F)c1nnc(-c2cccc(-c3nccn3Cc3ccccc3)c2)o1 [Example 70a, 2-[3-(1-benzyl-1H-imidazol-2-yl)phenyl]-5-(difluoromethyl)-1,3,4-oxadiazole] | 98
Cc1nc(Cn2ccnc2-c2cc(F)cc(-c3nnc(C(F)F)o3)c2)co1 [Example 57a, 2-(difluoromethyl)-5-(3-fluoro-5-{1-[(2-methyl-1,3-oxazol-4-yl)methyl]-1H-imidazol-2-yl}phenyl)-1,3,4-oxadiazole] | 97
Fc1cc(-c2nnc(C(F)F)o2)cc(-c2nccn2Cc2cscn2)c1 [Example 60a, 2-(difluoromethyl)-5-(3-fluoro-5-{1-[(1,3-thiazol-4-yl)methyl]-1H-imidazol-2-yl}phenyl)-1,3,4-oxadiazole] | 98
C[C@@]1(c2ccc(F)cc2)Cc2ncc(-c3nnc(C(F)F)o3)cc2C(=O)N1CC(F)F [Example 54b, (7S)-6-(2,2-difluoroethyl)-3-[5-(difluoromethyl)-1,3,4-oxadiazol-2-yl]-7-(4-fluorophenyl)-7-methyl-7,8-dihydro-1,6-naphthyridin-5(6H)-one] | 75
CN1C(=O)c2cc(-c3nnc(C(F)F)o3)cnc2CC1(C)c1ccc(F)cc1 (stereo not drawn) [Example 25b, 3-[5-(difluoromethyl)-1,3,4-oxadiazol-2-yl]-7-(4-fluorophenyl)-6,7-dimethyl-7,8-dihydro-1,6-naphthyridin-5(6H)-one] | 100
CN1C(=O)c2cc(-c3nnc(C(F)F)o3)ccc2OC1(C)c1ccc(C(F)(F)F)cc1 (stereo not drawn) [Example 17b, 6-[5-(difluoromethyl)-1,3,4-oxadiazol-2-yl]-2,3-dimethyl-2-[4-(trifluoromethyl)phenyl]-2,3-dihydro-4H-1,3-benzoxazin-4-one] | 100
N#Cc1cccc(Cn2ccnc2-c2cc(-c3nnc(C(F)F)o3)ccn2)n1 [Example 94a, 6-[(2-{4-[5-(difluoromethyl)-1,3,4-oxadiazol-2-yl]pyridin-2-yl]-1H-imidazol-1-yl)methyl]pyridine-2-carbonitrile] | 99
CC(C)(C)OC(=O)N1CCCC1COc1cccnc1-c1cc(F)cc(-c2nnc(C(F)F)o2)c1 (stereo not drawn) [Example 17a] | 96
Fc1cc(-c2nnc(C(F)F)o2)cc(-c2nccn2Cc2ccc(Cl)cc2)c1 [Example 22a, 2-(3-{1-[(4-chlorophenyl)methyl]-1H-imidazol-2-yl}-5-fluorophenyl)-5-(difluoromethyl)-1,3,4-oxadiazole] | 99
Fc1cc(-c2nnc(C(F)F)o2)cc(-c2nccn2Cc2ccc(F)c(Cl)c2)c1 [Example 68a, 2-(3-{1-[(3-chloro-4-fluorophenyl)methyl]-1H-imidazol-2-yl]-5-fluorophenyl)-5-(difluoromethyl)-1,3,4-oxadiazole] | 99
Cn1ccc(Cn2ccnc2-c2cc(F)cc(-c3nnc(C(F)F)o3)c2)n1 [Example 23a, 2-(difluoromethyl)-5-(3-fluoro-5-{1-[(1-methyl-1H-pyrazol-3-yl)methyl]-1H-imidazol-2-yl}phenyl)-1,3,4-oxadiazole] | 96
Fc1cc(-c2nnc(C(F)F)o2)cc(-c2nccn2CC2CCOCC2)c1 [Example 30a, 2-(difluoromethyl)-5-(3-fluoro-5-{1-[(oxan-4-yl)methyl]-1H-imidazol-2-yl}phenyl)-1,3,4-oxadiazole] | 98
O=C1OCC(Cc2ccccn2)N1c1cc(F)cc(-c2nnc(C(F)F)o2)c1 (stereo not drawn) [Example 41a, 3-{3-[5-(difluoromethyl)-1,3,4-oxadiazol-2-yl)-5-fluorophenyl}-4-[(pyridin-2-yl)methyl]-1,3-oxazolidin-2-one] | 21
Cc1ccc(C2(C)Oc3ccc(-c4nnc(C(F)F)o4)cc3C(=O)N2C)cc1 (stereo not drawn) [Example 22b, 6-[5-(difluoromethyl)-1,3,4-oxadiazol-2-yl]-2,3-dimethyl-2-(4-methylphenyl)-2,3-dihydro-4H-1,3-benzoxazin-4-one] | 100
O=C1CCCN1CCOc1cccnc1-c1cc(F)cc(-c2nnc(C(F)F)o2)c1 [Example 15a, 1-{2-[(2-{3-[5-(difluoromethyl)-1,3,4-oxadiazol-2-yl]-5-fluorophenyl}pyridin-3-yl)oxy]ethyl}pyrrolidin-2-one] | 92

Now from value to compound:

inhibition at 10 µM [%] | Structure (SMILES)
98 | CCOC(=O)CCCN(C)N1Cc2ccc(-c3nnc(C(F)F)o3)cc2C1=O [Example 50c, ethyl 4-[{6-[5-(difluoromethyl)-1,3,4-oxadiazol-2-yl]-1-oxo-1,3-dihydro-2H-isoindol-2-yl}(methyl)amino]butanoate]
99 | CN(Cc1ccc2nccn2c1)N1Cc2ccc(-c3nnc(C(F)F)o3)cc2C1=O [Example 45c, 6-[5-(difluoromethyl)-1,3,4-oxadiazol-2-yl]-2-{[(imidazo[1,2-a]pyridin-6-yl)methyl](methyl)amino}-2,3-dihydro-1H-isoindol-1-one]
99 | Fc1cc(-c2nnc(C(F)F)o2)cc(-n2nccc2OC2CCOCC2)c1 [Example 47a, 2-(difluoromethyl)-5-(3-fluoro-5-{5-[(oxan-4-yl)oxy]-1H-pyrazol-1-yl}phenyl)-1,3,4-oxadiazole]
99 | CN1C(=O)c2cc(-c3nnc(C(F)F)o3)ccc2CC1(C)c1ccc(F)cc1 (stereo not drawn) [Example 13b, 7-[5-(difluoromethyl)-1,3,4-oxadiazol-2-yl]-3-(4-fluorophenyl)-2,3-dimethyl-3,4-dihydroisoquinolin-1(2H)-one]
100 | COCCN1C(=O)c2cc(-c3nnc(C(F)F)o3)ccc2OC1(C)c1ccc(F)cc1 (stereo not drawn) [Example 52b, 6-[5-(difluoromethyl)-1,3,4-oxadiazol-2-yl]-2-(4-fluorophenyl)-3-(2-methoxyethyl)-2-methyl-2,3-dihydro-4H-1,3-benzoxazin-4-one]
99 | CCS(=O)(=O)N(Cc1ccc(F)cc1)N1Cc2ccc(-c3nnc(C(F)F)o3)cc2C1=O [Example 27c, N-{6-[5-(difluoromethyl)-1,3,4-oxadiazol-2-yl]-1-oxo-1,3-dihydro-2H-isoindol-2-yl}-N-[(4-fluorophenyl)methyl] ethanesulfonamide]
99 | CC(C)(C)OC(=O)NN1Cc2ccc(-c3nnc(C(F)F)o3)cc2C1=O [Example 3c, tert-butyl {6-[5-(difluoromethyl)-1,3,4-oxadiazol-2-yl]-1-oxo-1,3-dihydro-2H-isoindol-2-yl}carbamate]
99 | O=C1NN(C2CCC(F)(F)CC2)Cc2ccc(-c3nnc(C(F)F)o3)cc21 [Example 29b, 3-(4,4-difluorocyclohexyl)-7-[5-(difluoromethyl)-1,3,4-oxadiazol-2-yl]-3,4-dihydrophthalazin-1(2H)-one]
100 | O=C1c2cc(-c3nnc(C(F)F)o3)cnc2CN1N(Cc1ccc(F)cc1)CC1CCOCC1 [Example 71c, 3-[5-(difluoromethyl)-1,3,4-oxadiazol-2-yl]-6-{[(4-fluorophenyl)methyl][(oxan-4-yl)methyl]amino}-6,7-dihydro-5H-pyrrolo[3,4-b]pyridin-5-one]
101 | O=C(OC1CCOCC1)N(Cc1ccc(F)cc1)N1Cc2ccc(-c3nnc(C(F)F)o3)cc2C1=O [Example 23c, oxan-4-yl {6-[5-(difluoromethyl)-1,3,4-oxadiazol-2-yl]-1-oxo-1,3-dihydro-2H-isoindol-2-yl}[(4-fluorophenyl)methyl]carbamate]
99 | CN1C(=O)c2cc(-c3nnc(C(F)F)o3)ccc2OC1(C)c1ccc(C#N)cc1 (stereo not drawn) [Example 20b, 4-{6-[5-(difluoromethyl)-1,3,4-oxadiazol-2-yl]-2,3-dimethyl-4-oxo-3,4-dihydro-2H-1,3-benzoxazin-2-yl}benzonitrile]
94 | CCOC(=O)C(C)CN(C)N1Cc2ccc(-c3nnc(C(F)F)o3)cc2C1=O (stereo not drawn) [Example 43c, ethyl 3-[{6-[5-(difluoromethyl)-1,3,4-oxadiazol-2-yl]-1-oxo-1,3-dihydro-2H-isoindol-2-yl}(methyl)amino]-2-methylpropanoate]
